Experiments:
[1] = test system: purple nutsedge; test: Test B pre/postemergence purple nutsedge; assay type: in vivo, Cyperus rotundus; details: for Nutsedge plant response rating: scale of 0 to 10 where 0 is no effect and 10 is complete control
Outline: (§1)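 Test chemicals in a non-phytotoxic solvent mixture with surfactant were sprayed preemergence onto planted seeds and postemergence onto plants 2 to 18 cm tall (1- to 4-leaf stage). After twelve to sixteen days in a greenhouse, injury was visually rated against untreated controls from 0 (no effect) to 10 (complete control).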

[2] = test system: wild oat; test: Test B pre/postemergence wild oat; assay type: in vivo, Avena fatua; details: for Wild oats plant response rating: scale of 0 to 10 where 0 is no effect and 10 is complete control
Outline: as §1

[3] = test system: rape; test: Test B pre/postemergence rape; assay type: in vivo, Brassica napus; details: for Rape plant response rating: scale of 0 to 10 where 0 is no effect and 10 is complete control
Outline: as §1

[4] = test system: pigweed; test: Test B pre/postemergence pigweed; assay type: in vivo, Amaranthus retroflexus; details: for Redroot pigweed plant response rating: scale of 0 to 10 where 0 is no effect and 10 is complete control
Outline: as §1

[5] = test system: cocklebur; test: Test B pre/postemergence cocklebur; assay type: in vivo, Xanthium strumarium
Outline: as §1

[6] = test system: bamyardgrass; test: Test B flood test barnyardgrass; assay type: in vivo, Echinochloa crus-galli; details: Pre-emergence
Outline: (§2)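 Read-out is a visual response score from 0 (no effect) to 10 (complete control), assigned by comparison with untreated controls. Treatment was applied at the 2-leaf stage, and plants stayed in the greenhouse for twelve to sixteen days before scoring.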

[7] = test system: smallflower flatsedge; test: Test B flood test smallflower flatsedge; assay type: in vivo, Cyperus difformis; details: Pre-emergence
Outline: as §2

[8] = test system: soybean; test: Test B pre/postemergence soybean; assay type: in vivo, Glycine max; details: for Soybean plant response rating: scale of 0 to 10 where 0 is no effect and 10 is complete control
Outline: as §1

[9] = test system: corn; test: Test B pre/postemergence corn; assay type: in vivo, Zea mays; details: for Corn plant response rating: scale of 0 to 10 where 0 is no effect and 10 is complete control
Outline: as §1

[10] = test system: surinam grass; test: Test B pre/postemergence surinam grass; assay type: in vivo, Brachiaria decumbens
Outline: as §1

[11] = test system: wheat; test: Test B pre/postemergence wheat; assay type: in vivo, Triticum aestivum; details: for Wheat plant response rating: scale of 0 to 10 where 0 is no effect and 10 is complete control
Outline: as §1

[12] = test system: bedstraw; test: Test B pre/postemergence bedstraw; assay type: in vivo, Galium aparine; details: Preemergence
Outline: as §1

[13] = test system: blackgrass; test: Test B pre/postemergence blackgrass; assay type: in vivo, Alopecurus myosuroides
Outline: as §1

[14] = test system: velvetleaf; test: Test B pre/postemergence velvetleaf; assay type: in vivo, Abutilon theophrasti; details: for Velvetleaf plant response rating: scale of 0 to 10 where 0 is no effect and 10 is complete control
Outline: as §1

[15] = test system: crabgrass; test: Test B pre/postemergence crabgrass; assay type: in vivo, Digitaria sanguinalis; details: for Crabgrass plant response rating: scale of 0 to 10 where 0 is no effect and 10 is complete control
Outline: as §1

[16] = test system: sugar beet; test: Test B pre/postemergence sugar beet; assay type: in vivo, Beta vulgaris; details: for Sugarbeets plant response rating: scale of 0 to 10 where 0 is no effect and 10 is complete control
Outline: as §1

[17] = Postemergence, Rate 125 g/ha, scale 0 to 10, 0 is no effect, 10 is complete control
[18] = Preemergence, Rate 62 g/ha, scale 0 to 10 (0 no effect, 10 complete control)
[19] = Rate 500 g/ha, Postemergence, scale 0 to 10, 0 no effect, 10 complete control
[20] = Rate 62 g/ha, Postemergence, scale of 0 to 10 where 0 is no effect and 10 is complete control
[21] = Rate 62 g/ha, flood test species, visual evaluation after twelve to sixteen days
[22] = Rate 125 g/ha, flood test species, scale 0 to 10 where 0 is no effect and 10 is complete control
[23] = Rate 250 g/ha, flood-test species, scale 0 to 10, 0 is no effect, 10 is complete control
[24] = Rate 500 g/ha, flood test species, scale 0 to 10 (0 no effect, 10 complete control)
[25] = Preemergence, Rate 250 g/ha, scale of 0 to 10 where 0 is no effect and 10 is complete control
[26] = Preemergence, Rate 500 g/ha, scale of 0 to 10 where 0 is no effect and 10 is complete control
[27] = Rate 250 g/ha, Postemergence, scale of 0 to 10 where 0 is no effect and 10 is complete control

With `CCC(CC)n1c(=O)on(C(=O)N(c2ccc(F)cc2F)C(C)C)c1=O` [Compound 353] the “Plant response rating, Nutsedge” value [1, 17] was 0, the “Plant response rating, Nutsedge” value [1, 18] was 0 and the “Nutsedge plant response rating (0 to 10 scale)” value ([1]; Preemergence, Rate 125 g/ha) was 0. For the same compound, the “Nutsedge plant response rating” value ([1]; Preemergence, Rate 250 g/ha) was 0, the “Nutsedge plant response rating” value ([1]; Preemergence, Rate 500 g/ha) was 0 and the “Nutsedge plant response rating” value ([1]; Rate 62 g/ha, Postemergence) was 0. The “Plant response rating, Nutsedge” value [1, 19] was 0, the “Plant response rating, Wild oats” value [2, 17] was 0 and the “Plant response rating, Wild oats” value [2, 18] was 0. The “Wild oats plant response rating (0 to 10 scale)” value ([2]; Preemergence, Rate 125 g/ha) was 1, the “Wild oats plant response rating” value ([2]; Preemergence, Rate 250 g/ha) was 4 and the “Wild oats plant response rating” value ([2]; Preemergence, Rate 500 g/ha) was 6. For the same compound, the “Wild oats plant response rating” value ([2]; Rate 62 g/ha, Postemergence) was 0, the “Plant response rating, Wild oats” value [2, 19] was 2 and the “Plant response rating, Rape” value [3, 17] was 2. The “Plant response rating, Rape” value [3, 18] was 0, the “Rape plant response rating (0 to 10 scale)” value ([3]; Preemergence, Rate 125 g/ha) was 0 and the “Rape plant response rating” value ([3]; Preemergence, Rate 250 g/ha) was 1. The “Rape plant response rating” value ([3]; Preemergence, Rate 500 g/ha) was 5, the “Rape plant response rating” value ([3]; Rate 62 g/ha, Postemergence) was 2 and the “Plant response rating, Rape” value [3, 19] was 4. For the same compound, the “Plant response rating, Redroot pigweed” value [4, 17] was 3, the “Plant response rating, Redroot pigweed” value [4, 18] was 7 and the “Redroot pigweed plant response rating (0 to 10 scale)” value ([4]; Preemergence, Rate 125 g/ha) was 10. For the same compound, the “Redroot pigweed plant response rating” value ([4]; Preemergence, Rate 250 g/ha) was 10, the “Redroot pigweed plant response rating” value ([4]; Preemergence, Rate 500 g/ha) was 10 and the “Redroot pigweed plant response rating” value ([4]; Rate 62 g/ha, Postemergence) was 2. The “Plant response rating, Redroot pigweed” value [4, 19] was 6, the “Plant response rating, Cocklebur” value [5, 17] was 0 and the “Plant response rating, Cocklebur” value [5, 18] was 0. The “Cocklebur plant response rating (0 to 10 scale)” value ([5]; Preemergence, Rate 125 g/ha) was 0, the “Cocklebur plant response rating” value [5, 20] was 0 and the “Plant response rating, Cocklebur” value [5, 19] was 1. For the same compound, the “Plant response rating, Barnyardgrass (0 to 10 scale, 0 is no effect, 10 is complete control)” value [6, 21] was 0, the “Barnyardgrass plant response rating” value [6, 22] was 0 and the “Barnyardgrass plant response rating” value [6, 23] was 0. For the same compound, the “Barnyardgrass plant response rating” value [6, 24] was 9, the “Plant response rating, S. Flatsedge (0 to 10 scale, 0 is no effect, 10 is complete control)” value [7, 21] was 0 and the “S. Flatsedge plant response rating” value [7, 22] was 2. For the same compound, the “S. Flatsedge plant response rating” value [7, 23] was 2, the “S. Flatsedge plant response rating” value [7, 24] was 7 and the “Plant response rating, Soybean” value [8, 17] was 4. For the same compound, the “Plant response rating, Soybean” value [8, 18] was 0, the “Soybean plant response rating (0 to 10 scale)” value ([8]; Preemergence, Rate 125 g/ha) was 0 and the “Soybean plant response rating” value ([8]; Preemergence, Rate 250 g/ha) was 0. The “Soybean plant response rating” value ([8]; Preemergence, Rate 500 g/ha) was 0, the “Soybean plant response rating” value ([8]; Rate 62 g/ha, Postemergence) was 4 and the “Plant response rating, Soybean” value [8, 19] was 6. The “Plant response rating, Corn” value [9, 17] was 0, the “Plant response rating, Corn” value [9, 18] was 0 and the “Corn plant response rating (0 to 10 scale)” value ([9]; Preemergence, Rate 125 g/ha) was 3. The “Corn plant response rating” value ([9]; Preemergence, Rate 250 g/ha) was 3, the “Corn plant response rating” value ([9]; Preemergence, Rate 500 g/ha) was 7 and the “Corn plant response rating” value ([9]; Rate 62 g/ha, Postemergence) was 0. The “Plant response rating, Corn” value [9, 19] was 0, the “Plant response rating, B. signalgrass” value [10, 17] was 0 and the “Plant response rating, B. signalgrass” value [10, 18] was 0. For the same compound, the “B. signalgrass plant response rating (0 to 10 scale, 0 is no effect, 10 is complete control)” value ([10]; Preemergence, Rate 125 g/ha) was 2, the “B. signalgrass plant response rating” value [10, 25] was 5 and the “B. signalgrass plant response rating” value [10, 26] was 5. The “B. signalgrass plant response rating” value [10, 20] was 0, the “Plant response rating, B. signalgrass” value [10, 27] was 0 and the “Plant response rating, B. signalgrass” value [10, 19] was 0. The “Plant response rating, Wheat” value [11, 17] was 0, the “Plant response rating, Wheat” value [11, 18] was 0 and the “Wheat plant response rating (0 to 10 scale)” value ([11]; Preemergence, Rate 125 g/ha) was 0. For the same compound, the “Wheat plant response rating” value ([11]; Preemergence, Rate 250 g/ha) was 2, the “Wheat plant response rating” value ([11]; Preemergence, Rate 500 g/ha) was 2 and the “Wheat plant response rating” value ([11]; Rate 62 g/ha, Postemergence) was 0. For the same compound, the “Plant response rating, Wheat” value [11, 19] was 0, the “Plant response rating, Bedstraw” value ([12]; Rate 62 g/ha, scale 0 to 10 (0 no effect, 10 complete control)) was 0 and the “Bedstraw plant response rating (0 to 10 scale)” value ([12]; Rate 125 g/ha) was 0. For the same compound, the “Bedstraw plant response rating” value ([12]; Rate 500 g/ha, scale of 0 to 10 where 0 is no effect and 10 is complete control) was 3, the “Plant response rating, Blackgrass” value [13, 17] was 4 and the “Plant response rating, Blackgrass” value [13, 18] was 2. For the same compound, the “Blackgrass plant response rating” value [13, 25] was 7, the “Blackgrass plant response rating” value [13, 26] was 8 and the “Blackgrass plant response rating” value [13, 20] was 0. The “Plant response rating, Blackgrass” value [13, 27] was 4, the “Plant response rating, Blackgrass” value [13, 19] was 9 and the “Plant response rating, Velvetleaf” value [14, 17] was 0. For the same compound, the “Plant response rating, Velvetleaf” value [14, 18] was 0, the “Velvetleaf plant response rating (0 to 10 scale)” value ([14]; Preemergence, Rate 125 g/ha) was 1 and the “Velvetleaf plant response rating” value ([14]; Preemergence, Rate 250 g/ha) was 4. The “Velvetleaf plant response rating” value ([14]; Preemergence, Rate 500 g/ha) was 6, the “Velvetleaf plant response rating” value ([14]; Rate 62 g/ha, Postemergence) was 0 and the “Plant response rating, Velvetleaf” value [14, 19] was 2. For the same compound, the “Plant response rating, Crabgrass” value [15, 17] was 0, the “Plant response rating, Crabgrass” value [15, 18] was 7 and the “Crabgrass plant response rating (0 to 10 scale)” value ([15]; Preemergence, Rate 125 g/ha) was 9. The “Crabgrass plant response rating” value ([15]; Preemergence, Rate 250 g/ha) was 10, the “Crabgrass plant response rating” value ([15]; Preemergence, Rate 500 g/ha) was 10 and the “Crabgrass plant response rating” value ([15]; Rate 62 g/ha, Postemergence) was 0. The “Plant response rating, Crabgrass” value [15, 19] was 3, the “Plant response rating, Sugarbeets” value [16, 17] was 0 and the “Plant response rating, Sugarbeets” value [16, 18] was 0. For the same compound, the “Sugarbeets plant response rating (0 to 10 scale)” value ([16]; Preemergence, Rate 125 g/ha) was 2, the “Sugarbeets plant response rating” value ([16]; Preemergence, Rate 250 g/ha) was 2 and the “Sugarbeets plant response rating” value ([16]; Preemergence, Rate 500 g/ha) was 4. The “Sugarbeets plant response rating” value ([16]; Rate 62 g/ha, Postemergence) was 0 and the “Plant response rating, Sugarbeets” value [16, 19] was 6.
